The structures appear in SMILES notation. Values joined by “and” are separate entries in the source; they are usually repeats but may differ in a detail not shown here. Equal entries are not always repeated.

One assay relates to Cavia porcellus. Put plainly: Ex vivo inhibition of […] induced guinea pig platelet aggregation after 1 hr post oral administration at a dose of 10 mg/kg; Aggregation ratio = EC50 for drug/EC50 for control. Type of assay: functional.
For a further assay, the target named is T1, Thromboxane-A synthase (Homo sapiens, UniProt P24557).
T1 sequence (P24557 whole entry): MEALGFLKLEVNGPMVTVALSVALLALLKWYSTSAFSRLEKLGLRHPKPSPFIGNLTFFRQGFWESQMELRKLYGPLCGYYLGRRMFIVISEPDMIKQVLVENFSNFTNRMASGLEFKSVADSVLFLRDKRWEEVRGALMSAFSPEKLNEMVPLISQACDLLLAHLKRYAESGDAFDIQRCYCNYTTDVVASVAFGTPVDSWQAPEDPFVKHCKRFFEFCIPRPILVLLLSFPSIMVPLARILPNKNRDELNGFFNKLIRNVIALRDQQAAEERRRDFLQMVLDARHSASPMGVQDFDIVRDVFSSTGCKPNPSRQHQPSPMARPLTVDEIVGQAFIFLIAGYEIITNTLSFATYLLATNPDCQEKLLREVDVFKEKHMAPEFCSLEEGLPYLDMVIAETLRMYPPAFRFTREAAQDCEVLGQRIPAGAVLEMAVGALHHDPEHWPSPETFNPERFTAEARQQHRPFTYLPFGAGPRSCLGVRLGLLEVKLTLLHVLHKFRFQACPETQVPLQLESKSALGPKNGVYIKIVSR
The experiment in a line: In vitro inhibition against thromboxane synthase.

Assay [1] is described as follows: In vitro thromboxane receptor antagonist against U-46619 induced aggregation of washed human platelets.

In the case of `O=C(O)CCCCO/N=C(/c1cccnc1)c1cccc(C(F)(F)F)c1` [RIDOGREL], the Aggregation ratio in the assay with Cavia porcellus was 4.4.

One may read the IC50 as the midpoint of a concentration-inhibition curve. Read a low IC50 as greater potency. `O=C(O)CC/C=C\CC[C@H]1[C@@H](OCc2ccc(-c3ccccc3)cc2)CO[C@@H]1c1cccnc1` (stereo in doubt; 5): on Thromboxane-A synthase, the IC50 is 17 nM.

Compound `O=C(O)CC/C=C\CC[C@H]1[C@@H](OCc2ccc(-c3ccccc3)cc2)CO[C@H]1c1cccnc1` displayed an IC50 at Thromboxane-A synthase of 32 nM. This IC50 lies about 1.9-fold higher than the previous one.

At Thromboxane-A synthase, `O=C(O)CC/C=C\CC[C@H]1[C@H](OCc2ccc(-c3ccccc3)cc2)CO[C@H]1c1cccnc1` came in with an IC50 of 65 nM.

Turning to `O=C(O)CC/C=C\CC[C@H]1[C@@H](OCc2ccc(-c3ccccc3)cc2)CO[C@@H]1c1cccnc1` (stereo in doubt; (+)), the Aggregation ratio with Cavia porcellus (10 mg/kg) is >100 and 65.6. Moreover, the 50% inhibitory concentration (IC50) at Thromboxane-A synthase stood at 4.3 nM.

Compound `O=C(O)CC/C=C\CC[C@H]1[C@@H](OCc2ccc(-c3ccccc3)cc2)CO[C@@H]1c1cccnc1` (stereo in doubt; (-)) displayed a half-maximal inhibitory concentration (IC50) against Thromboxane-A synthase of 120 nM.

`O=C(O)CCC(CCCCNS(=O)(=O)c1ccc(Cl)cc1)CCCc1cccnc1` (stereo not given): in the assay with Cavia porcellus, the Aggregation ratio is 24.5. This compound also displayed an IC50 in assay [1] of 18 nM.

Compound `O=C(O)CC/C=C\CC[C@@H]1[C@@H](c2cccnc2)OC[C@H]1OCc1ccc(-c2ccccc2)cc1` yielded a 50% inhibitory concentration (IC50) against Thromboxane-A synthase of 22 nM.

The values above are taken from ChEMBL document CHEMBL1151532, “Oxa-prostanoid analogs. Identification of an orally effective, dual thromboxane receptor antagonist /thromboxane synthase inhibitor” (Bioorg Med Chem Lett, 1994).
